The text below walks through data of patent publication US10196425B2, “Peptide compositions” (RHYTHM PHARMACEUTICALS, INC., priority 2013, dated 2019).

Where two headings read alike, the source gives them in different places. Bridge positions count the residues as written; N and C are the ends. Square brackets hold non-standard residues; d marks the D form. Peptide text beside a SMILES is read from it. Pen = CC(C)(S)[C@H](N)C(=O)O; hCys = N[C@@H](CCS)C(=O)O Some results are limits rather than exact numbers.

Common to all, as to assay type: cell-based
The target in test [1] is MC1R (Homo sapiens, UniProt Q01726). In words: cAMP assay (β-galactosidase reporter, cAMP Hunter), MC1R. As to conditions: for Ratios of EC50 values MC ¼: EC50(MC1R)/EC50(MC4R). An excerpt:
(§1) cAMP Accumulation Measurement Via a β-Galactosidase (β-Gal) Reporter System
(§2) A chemiluminescence readout system that uses an enzyme fragment complementation (EFC) system with β-galactosidase (β-Gal) as the functional reporter system was used. This assay system for various melanocortin receptor systems is commercially available (cAMP Hunter GPCR assay system, Discoverx Corp, Fremont, Calif.). This assay utilizes the β-Gal enzyme that is split into two complementary portions; EA for Enzyme Acceptor and ED for Enzyme Donor. In the assay, the ED portion fused to cAMP is made to compete with cAMP generated by cells for binding to a cAMP-specific antibody. The EA is then added to form active β-Gal with any unbound ED-cAMP.
(§3) Briefly, 10000 cells per well are plated overnight and each well (cells incubated with 10 μl assay buffer) is then incubated with 4× serial concentration of the test compound in the cell assay buffer (5 μL) and cAMP antibody reagent (5 μL) for 30 min at 37° C. The cell lysis buffer (20 μL) containing ED-cAMP coupled enzyme fragment and the reporter substrate (Emerald II-Galacton Star, 5:1) is then added and incubated for 60 min at room temperature. Next, 20 μL of EA β-Gal fragment reagent is added.

The target in test [2] is MC3R (Homo sapiens, UniProt P41968). In words: cAMP assay (β-galactosidase reporter, cAMP Hunter), MC3R. To be noted: for Ratios of EC50 values MC ¾: EC50(MC3R)/EC50(MC4R).
Source text: as §1, §2, §3

In test [3] the target is MC4R (Homo sapiens, UniProt P32245). The test is described as follows: cAMP assay (β-galactosidase reporter, cAMP Hunter), MC4R.
Source text: as §1, §2, §3

Test [4] has as its target MC5R (Homo sapiens, UniProt P33032). The test is described as follows: cAMP assay (β-galactosidase reporter, cAMP Hunter), MC5R. As to conditions: for Ratios of EC50 values MC 5/4: EC50(MC5R)/EC50(MC4R).
Source text: as §1, §2, §3

Where [5] appears, read: agonist cAMP stimulation, read-out: cAMP Assay (EC-50) MC1R.
Where [6] appears, read: agonist cAMP stimulation, read-out: cAMP Assay (EC-50) MC3R.
Setting [7] is: agonist cAMP stimulation, read-out: cAMP Assay (EC-50) MC4R.
The mark [8] stands for this setting: agonist cAMP stimulation, read-out: cAMP Assay (EC-50) MC5R.

Sequence of MC5R (P33032 whole entry): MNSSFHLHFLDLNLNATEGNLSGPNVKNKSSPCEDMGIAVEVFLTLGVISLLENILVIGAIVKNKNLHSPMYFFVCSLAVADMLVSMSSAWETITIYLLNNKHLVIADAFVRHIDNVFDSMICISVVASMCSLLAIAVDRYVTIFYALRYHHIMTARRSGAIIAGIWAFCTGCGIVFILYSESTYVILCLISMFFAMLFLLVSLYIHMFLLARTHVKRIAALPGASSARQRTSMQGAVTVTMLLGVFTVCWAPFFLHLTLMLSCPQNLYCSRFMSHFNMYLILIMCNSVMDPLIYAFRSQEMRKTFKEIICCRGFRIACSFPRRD
Sequence of MC3R (P41968 whole entry): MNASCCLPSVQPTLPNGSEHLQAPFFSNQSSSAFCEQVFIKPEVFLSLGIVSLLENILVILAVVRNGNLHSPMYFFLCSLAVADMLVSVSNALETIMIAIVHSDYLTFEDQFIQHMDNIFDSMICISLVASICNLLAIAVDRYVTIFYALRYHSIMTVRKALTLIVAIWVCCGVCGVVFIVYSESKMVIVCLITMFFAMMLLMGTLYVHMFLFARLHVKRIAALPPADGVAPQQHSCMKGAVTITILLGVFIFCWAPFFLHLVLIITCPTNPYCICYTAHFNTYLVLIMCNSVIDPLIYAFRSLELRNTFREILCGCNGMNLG
Sequence of MC4R (P32245 whole entry): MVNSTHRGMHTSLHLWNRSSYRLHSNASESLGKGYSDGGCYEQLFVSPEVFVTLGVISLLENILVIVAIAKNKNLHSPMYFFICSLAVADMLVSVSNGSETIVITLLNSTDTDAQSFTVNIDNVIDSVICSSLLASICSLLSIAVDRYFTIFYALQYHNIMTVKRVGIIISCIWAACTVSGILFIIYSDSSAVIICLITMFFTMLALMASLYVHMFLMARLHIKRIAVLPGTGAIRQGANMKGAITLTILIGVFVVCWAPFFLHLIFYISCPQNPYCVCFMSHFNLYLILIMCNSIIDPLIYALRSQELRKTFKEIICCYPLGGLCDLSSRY
Sequence of MC1R (Q01726 whole entry): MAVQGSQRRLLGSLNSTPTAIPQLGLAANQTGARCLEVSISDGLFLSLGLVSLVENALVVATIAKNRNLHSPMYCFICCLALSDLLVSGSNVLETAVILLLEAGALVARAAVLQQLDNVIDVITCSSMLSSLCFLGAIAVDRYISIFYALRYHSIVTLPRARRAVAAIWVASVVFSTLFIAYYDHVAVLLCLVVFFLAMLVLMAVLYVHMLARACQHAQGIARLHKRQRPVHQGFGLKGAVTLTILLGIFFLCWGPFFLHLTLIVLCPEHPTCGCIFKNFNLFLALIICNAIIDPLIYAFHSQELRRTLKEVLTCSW

As for `CC(=O)N[C@@H](CCCNC(=N)N)C(=O)N[C@H]1CCSSC[C@@H](C(N)=O)NC(=O)[C@H](Cc2c[nH]c3ccccc23)NC(=O)[C@H](CCCNC(=N)N)NC(=O)[C@@H](Cc2ccccc2)NC(=O)[C@H](C)NC1=O` [Compound 15, Ac-Arg-cyclo[hCys-Ala-D-Phe-Arg-Trp-Cys]-NH2] (Ac-R[hCys]A[dF]RWC-NH2; disulfide 2-7), the “Ratios of EC50 values MC ¼” value in test [1] stood at 15. Also, the EC50 came out at 4 nM in test [1] (setting [5]), 1 nM in test [2] (setting [6]), 0.26 nM in test [3] (setting [7]) and 42 nM in test [4] (setting [8]). Further, the “Ratios of EC50 values MC ¾” value in test [2] was found to be 3.8. The “Ratios of EC50 values MC 5/4” value in test [4] was 161.

Turning to `CC(=O)N[C@@H](CCCNC(=N)N)C(=O)N[C@H]1CCSSC[C@@H](C(N)=O)NC(=O)[C@H](Cc2c[nH]c3ccccc23)NC(=O)[C@H](CCCNC(=N)N)NC(=O)[C@@H](Cc2ccccc2)NC(=O)[C@@H](C)NC1=O` [Compound 16, Ac-Arg-cyclo[hCys-D-Ala-D-Phe-Arg-Trp-Cys]-NH2] (Ac-R[hCys][dA][dF]RWC-NH2; disulfide 2-7), in test [1], the “Ratios of EC50 values MC ¼” value is reported as 120. Also, the EC50 in test [1] (setting [5]) was 888 nM; in test [2] (setting [6]), 3160 nM; in test [3] (setting [7]), 7.5 nM; in test [4] (setting [8]), > 10000 nM. For the same compound, the “Ratios of EC50 values MC ¾” value in test [2] is given as 420. In test [4], the “Ratios of EC50 values MC 5/4” value is given as >1338.

For the compound `CC(=O)N[C@@H](CCCNC(=N)N)C(=O)N[C@H]1CCSSC(C)(C)[C@@H](C(N)=O)NC(=O)[C@H](Cc2c[nH]c3ccccc23)NC(=O)[C@H](CCCNC(=N)N)NC(=O)[C@@H](Cc2ccccc2)NC(=O)[C@@H](C)NC1=O` [Compound 17, Ac-Arg-cyclo[hCys-D-Ala-D-Phe-Arg-Trp-Pen]-NH2] (Ac-R[hCys][dA][dF]RW[Pen]-NH2; disulfide 2-7), the “Ratios of EC50 values MC ¼” value in test [1] is recorded as 15. In addition, the EC50 in test [1] (setting [5]) amounted to 195 nM; in test [2] (setting [6]), 233 nM; in test [3] (setting [7]) it was 13.7 nM; in test [4] (setting [8]), 2180 nM. In addition, the “Ratios of EC50 values MC ¾” value in test [2] came out at 17. Besides, in test [4], the “Ratios of EC50 values MC 5/4” value worked out at 159.

Turning to `CC(=O)N[C@@H](CCC(=O)O)C(=O)N[C@H]1CSSC[C@@H](C(N)=O)NC(=O)[C@H](Cc2c[nH]c3ccccc23)NC(=O)[C@H](CCCNC(=N)N)NC(=O)[C@@H](Cc2ccccc2)NC(=O)[C@H](Cc2c[nH]cn2)NC(=O)[C@H](C)NC1=O` [Compound 22, Ac-Glu-cyclo[Cys-Ala-His-D-Phe-Arg-Trp-Cys]-NH2] (Ac-ECAH[dF]RWC-NH2; disulfide 2-8), in test [1], the EC50 was determined as 1.7 nM and the “Ratios of EC50 values MC ¼” value is given as >3. In test [2], the EC50 worked out at 9.9 nM and the “Ratios of EC50 values MC ¾” value is reported as >20. In addition, the EC50 in test [3] is < 0.5 nM. In addition, in test [4], the EC50 worked out at 1280 nM and the “Ratios of EC50 values MC 5/4” value is listed as >2563.
